Assay results as given in US10632144B2, “Low polydispersity, low molecular weight biotechnological chondroitin sulfate with anti-inflammatory and antiarthritis activity and use thereof in the prevention of osteoarthritis” (Gnosis S.p.A., priority 2012, dated 2020).

Legend:
[1] = test system: auxotrophic strains of Salmonella typhimurium; assay: Bacterial reverse mutation test (OECD 471); type: cell-based
Procedure: (§1) The CS according to the invention was also tested for its toxicological safety in animals and on cell cultures according to various protocols designed to assess its potential genotoxicity at cell level and acute oral toxicity in the rat. All the tests used were validated and conducted according to OECD guidelines for pharmaceutical products.
(§2) The biotechnological CS was subjected to mutagenesis tests in bacterial cells (bacterial reverse mutation, Ref. OECD 471) which tested the ability of the product to induce the appearance of reverse mutants in auxotrophic strains of E. coli and Salmonella typhimurium.

[2] = test system: auxotrophic strains of E. coli; assay: Bacterial reverse mutation test (OECD 471); type: cell-based
Procedure: as §1, §2

[3] = test system: rats with Adjuvant Arthritis (AA); assay: Adjuvant arthritis (AA) in rats: change in body weight; type: in vivo, male Lewis rats; settings: for increase in body weight relative to that of the healthy controls: 900 mg/kg/day, end of the study
Procedure: (§3) AA was induced by a single intradermal injection of Mycobacterium butyricum in […] Freund's adjuvant. The study involved one group of healthy animals (HC), one group of untreated arthritic animals (AC) and two groups of arthritic animals treated with two different regimens. The first treatment regimen involved pre-treatment consisting of administration of 900 mg/kg of biotechnological CS a day for 14 days before arthritis was induced, continuing for 28 days after the induction of AA (PT). The second treatment regimen involved the administration of 900 mg/kg of biotechnological CS a day only during the 28 days after induction of AA (T).
(§4) 40 male Lewis rats weighing between 150 and 190 g were divided at random into four groups of 10 animals each, housed in polypropylene cages in an environment maintained at the temperature of 22±2° C., and fed on a standard laboratory diet with unlimited access to water.
(§5) The experimental groups were as follows:
(§6) 3) A group of arthritic rats orally treated with biotechnological CS at the dose of 900 mg/day per kg of body weight for 28 days after induction of AA (days 0-28 of the experiment) (T).
(§7) 4) A group orally pre-treated with biotechnological CS at the dose of 900 mg/day per kg of body weight for 14 days preceding the induction of AA, and for the 28 days after induction of AA (days −14 to 28 of the experiment) (PT).
(§8) The CS of the invention was dissolved in distilled water at the concentration of 20 mg/ml and administered orally as a single daily dose by gavage.
The body weight of the rats was measured before induction of AA (day 0), on days 7, 14 and 21, and at the end of the treatment (day 28). The effect of the treatment on this parameter was evaluated by comparing the weight increases of the different groups during the treatment period.

Sprague-Dawley rats = assay: Acute toxicity after oral administration; type: in vivo; settings: up to 2000 mg/kg body weight
Procedure: as §1
Finally, acute toxicity after oral administration was examined in Sprague-Dawley rats up to the dose of 2000 mg/kg of body weight.

C reactive protein (CRP) = assay: AA rat model, biotech vs animal LMW-CS: CRP plasma levels; type: in vivo, male Lewis rats
Procedure: (§9) As described in Example 5, commercial (high-molecular-weight) chondroitin sulfate material was subjected to depolymerization according to Cho, under controlled condition, until the desired mean MW was reached.
(§10) The product of Example 5 was tested in vivo vs. biotechnological chondroitin of the invention obtained as described in Ex. 4 (equivalent to the product obtained from any of the Examples 1, 2 or 3).
(§11) Two key parameters were analyzed to determine the efficacy of the treatment in reducing the inflammation related to osteoarthritis: C reactive protein (CRP) and interleukin-6 (IL-6) plasma levels. […] CRP is another important marker for systemic inflammation, its plasmatic level rises up during arthritis progression. AA was induced in male Lewis rats with a single intradermal injection of heat-inactivated Mycobacterium butyricum in […] Freund's adjuvant. The following anti-osteoarthritic treatment consisted in daily oral (900 mg/kg b.w.) administrations of LMW-CS starting from day 0, i.e. the day of bacterial inoculation.

interleukin-6 (IL-6) = assay: AA rat model, biotech vs animal LMW-CS: IL-6 plasma levels; type: in vivo, male Lewis rats
Procedure: as §9, §10, §11

[4] = test system: rats with Adjuvant Arthritis (AA); assay: Adjuvant arthritis (AA) in rats: hind paw oedema; type: in vivo, male Lewis rats
Procedure: as §3, §4, §5, §6, §7, §8
The oedema that developed as a consequence of arthritis was measured by observing the increase in volume of the hind paw with a caliper suitable for the measurement. The measurements were performed before the induction of AA (day 0) and on days 7, 14, 21 and 28 of the study.
The data were expressed as the percentage increase in oedema calculated with the following formula: [(Dayn/Day0)×100]−100, Day0 being the measurement on the initial day and Dayn the measurement on the day considered.

[5] = test system: rats with Adjuvant Arthritis (AA); assay: Adjuvant arthritis (AA) in rats: arthritis score; type: in vivo, male Lewis rats; design: key to Arthritis score: sum of oedema (1-8), forepaw diameter (1-5), scab diameter (1-5) scores
Procedure: as §3, §4, §5, §6, §7, §8
The arthritis score was evaluated by allocating a score to the observation of paw joint swelling (oedema), the extent of periarticular erythema and the diameter of the scab at the adjuvant injection site at the base of the tail. The arthritis score or arthrogram was measured as the sum total of oedema (in ml, score 1 to 8), plus the diameter of the forepaw (in mm, max score 1 to 5), plus the diameter of the scab at the site of application of Mycobacterium butyricum measured parallel to the spinal column (in mm, max score 1 to 5), for each animal.

[6] = Pre-Treatment (PT): 900 mg/kg/day oral, days −14 to 28, day 0
[7] = Pre-Treatment (PT): 900 mg/kg/day oral, days −14 to 28, day 7
[8] = Pre-Treatment (PT): 900 mg/kg/day oral, days −14 to 28, day 14
[9] = Pre-Treatment (PT): 900 mg/kg/day oral, days −14 to 28, day 21
[10] = Pre-Treatment (PT): 900 mg/kg/day oral, days −14 to 28, day 28
[11] = Treatment (T): 900 mg/kg/day oral, days 0-28, day 0
[12] = Treatment (T): 900 mg/kg/day oral, days 0-28, day 7
[13] = Treatment (T): 900 mg/kg/day oral, days 0-28, day 14
[14] = Treatment (T): 900 mg/kg/day oral, days 0-28, day 21
[15] = Treatment (T): 900 mg/kg/day oral, days 0-28, day 28
[16] = daily oral 900 mg/kg b.w. from day 0, day 14
[17] = daily oral 900 mg/kg b.w., 14 days of treatment

Low-molecular-weight chondroitin sulfate sodium salt [LMW-CS]
bacterial mutagenicity (reverse mutants) [1]: No significant increase
bacterial mutagenicity (reverse mutants) [2]: No significant increase
Change in body weight: Δ(dayn − day0) [3, 6]: 0.0 g
Change in body weight: Δ(dayn − day0) [3, 7]: 92.96 g
Change in body weight: Δ(dayn − day0) [3, 8]: 107.26 g
Change in body weight: Δ(dayn − day0) [3, 9]: 93.39 g
Change in body weight: Δ(dayn − day0) [3, 10]: 108.63 g
increase in body weight relative to that of the healthy controls ([3]; Pre-treatment (PT)): 73%
Change in body weight: Δ(dayn − day0) [3, 11]: 0.0 g
Change in body weight: Δ(dayn − day0) [3, 12]: 85.19 g
Change in body weight: Δ(dayn − day0) [3, 13]: 89.19 g
Change in body weight: Δ(dayn − day0) [3, 14]: 68.39 g
Change in body weight: Δ(dayn − day0) [3, 15]: 79.78 g
increase in body weight relative to that of the healthy controls ([3]; Treatment alone (T)): 54%
clinical signs (Sprague-Dawley rats; 14 days observation): did not show any clinical signs of suffering
mortality (Sprague-Dawley rats; 14 days observation): no mortality occurred
autopsy of tissues and organs (Sprague-Dawley rats; end of the study): did not indicate any signs of toxicity
CRP plasma levels (C reactive protein (CRP); [16]): 548.8 µg/mL
effect of treatment on CRP plasma levels (C reactive protein (CRP); [17]): decreased
IL-6 plasma levels (interleukin-6 (IL-6); [16]): 233.9 pg/mL
effect of treatment on IL-6 plasma levels (interleukin-6 (IL-6); [17]): decreased
Change in hind paw swelling: [(Dayn/Day0) × 100] − 100 [4, 6]: 0.0%
Change in hind paw swelling: [(Dayn/Day0) × 100] − 100 [4, 7]: 15.4%
Change in hind paw swelling: [(Dayn/Day0) × 100] − 100 [4, 8]: 26.7%
Change in hind paw swelling: [(Dayn/Day0) × 100] − 100 [4, 9]: 46.5%
Change in hind paw swelling: [(Dayn/Day0) × 100] − 100 [4, 10]: 49.7%
oedema developed in the hind paw vs untreated controls ([4]; Pre-treated animals (PT), 900 mg/kg/day): significantly reduced
Change in hind paw swelling: [(Dayn/Day0) × 100] − 100 [4, 11]: 0.0%
Change in hind paw swelling: [(Dayn/Day0) × 100] − 100 [4, 12]: 13.1%
Change in hind paw swelling: [(Dayn/Day0) × 100] − 100 [4, 13]: 34.5%
Change in hind paw swelling: [(Dayn/Day0) × 100] − 100 [4, 14]: 62.8%
Change in hind paw swelling: [(Dayn/Day0) × 100] − 100 [4, 15]: 61.4%
Arthritis score [5, 6]: 10.0
Arthritis score [5, 7]: 10.1
Arthritis score [5, 8]: 13.1
Arthritis score [5, 9]: 15.8
Arthritis score ([5]; Pre-Treatment (PT): 900 mg/kg/day oral, days −14 to 28, day 28, listed as biotechnological CS, sulfate sodium salt): 19
Arthritis score ([5]; Pre-Treatment (PT): 900 mg/kg/day oral, days −14 to 28, day 28, sulfate sodium salt): 19.0
Arthritis score [5, 11]: 10.0
Arthritis score [5, 12]: 10.0
Arthritis score [5, 13]: 18.1
Arthritis score [5, 14]: 22.7
Arthritis score [5, 15]: 23.0
influence on arthritis score during the study period ([5]; Treatment-only (T) group, 900 mg/kg/day): did not significantly influence
